Assay results: US20220347175A1, “PYRIDAZINONE DERIVATIVE” (Sumitomo Dainippon Pharma Co., Ltd., priority 2018, published 2022)
Read-outs that look alike come from different tables or passages of the source.

Target: T1, human Nav1.1 (Homo sapiens, UniProt P35498)
T1 construct: host or cells: HEK293
Test: Amplification of Nav1.1-derived voltage-dependent sodium current (Nav1.1 current), cell line stably expressing human Nav1.1, automated patch clamp
Assay type: cell-based
Details: for activation at 1 µM / activation at 10 µM / activation at 50 µM: read-out: Nav1.1 current amplification rate (%)
Method: Test 1: Evaluation of the Amplification of Nav1.1-Derived Voltage-Dependent Sodium Current (Nav1.1 Current) by Using a Cell Line Stably Expressing Human Nav1.1
(1) Preparation of Test Compounds
Test compounds were prepared by dissolving in DMSO at 200 times of the concentration at evaluation, and diluting the obtained solution to twice the concentration of evaluation with an extracellular fluid (135 mmol/L NaCl, 4 mmol/L KCl, 1 mmol/L MgCl2, 5 mmol/L CaCl2, 5 mmol/L Glucose, 10 mmol/L HEPES).
(2) Induction and Measurement of Nav1.1 Current
A HEK293 cell line stably expressing human Nav1.1 (cat #CYL3009, Millipore, USA, Human Embryonic Kidney 293) was purchased, and used in the present test. Nav1.1 current was induced by stimulating Ramp wave voltage. Detection of current which accompanied with the stimulation of voltage was carried out by a patch-clamp voltage-clamp method using HTS automated patch clamp system (SynchroPatch 768PE, Nanion Technologies GmbH, Germany). Only cells with more than 500 pA of voltage-dependent sodium channel current were used for the evaluation of the activity of compounds on Nav1.1 current because there was the possibility that currents derived from endogenous voltage-dependent sodium channels accounted for large proportion in cells with less than 500 pA of voltage-dependent sodium channel current which was induced by stimulating Ramp wave voltage.
(3) Pharmacologic Effect on Nav1.1 Current
The effect of test compounds on the amplification of Nav1.1-derived voltage-dependent sodium current was evaluated by using a cell line stably expressing human Nav1.1 and HTS automated patch clamp system. In other words, test compounds were added in an extracellular fluid containing 1% DMSO, and evaluated as a change of the peak value of Nav1.1 current and the area under the curve (AUC).
(4) Method for Pharmacological Evaluation
The Nav1.1 current amplification rates of test compounds were calculated by the following formula:
Nav1.1 current amplification rate (%)=100×[the peak value of Nav1.1 current or the area under the curve after the addition of test compounds]/[the peak value of Nav1.1 current or the area under the curve before the addition of test compounds]−100

[1] = Concentration 1 μM (Test Result 7)
[2] = concentration of each compound 1 μmol/L (Test Result 6)
[3] = compound 50 μmol/L, HEK293 stably expressing human Nav1.1
[4] = 10 μmol/L compound (Test Result 5)
[5] = Concentration 50 μM (Test Result 7)

`CC1CC=C(c2ccc(=O)n(CC(=O)Nc3ccn4ncnc4c3F)n2)CC1` (centres unmarked) [Example 552] was tested, and the activation at 1 µM [1] was 24%.
With `CN(CC1(C)CC1)c1ccc(=O)n(CC(=O)N2CCc3c(N4CCOCC4)cccc32)n1` [Example 568] the activation at 1 µM [1] was 42%.
`O=C(Cn1nc(N2CCC3(CCC3)CC2)ccc1=O)Nc1ccn2ncnc2c1` [Example 231] showed an activation at 1 µM [2] of 50%.
For `CC1CC=C(c2ccc(=O)n(CC(=O)NC3CCN(c4ccccc4)C3)n2)CC1` (mixture of isomers) [Example 369], the “Nav1.1 current amplification rate (%)” value [3] was 10%.
In the case of `CC1(C)CC=C(c2ccc(=O)n(CC(=O)NC3CCn4ccnc4C3)n2)CC1` (centres unmarked) [Example 534], the activation at 10 µM [4] is reported as 7%.
In the case of `N#Cc1ccc(NC(=O)Cn2nc(N3CCC4(CCC4)C3)ccc2=O)cc1` [Example 34], the “Nav1.1 current amplification rate (%)” value [4] is reported as 311%.
With `N#Cc1ccc(NC(=O)Cn2nc(N3CCC4(CC3)CC(F)(F)C4)ccc2=O)cc1` [Example 32] the “Nav1.1 current amplification rate (%)” value [4] was 60%.
`CC1CCN(c2nn(CC(=O)Nc3ccc(C#N)cc3)c(=O)c3c2CCCC3)CC1` [Example 36] was tested, and the “Nav1.1 current amplification rate (%)” value [4] was 312%.
For `CC1CC=C(c2ccc(=O)n(CC(=O)Nc3ccnc(CN4CCOCC4)c3)n2)CC1` (racemic) [Example 373], the “Nav1.1 current amplification rate (%)” value [4] was 35%.
`CC1CC=C(c2ccc(=O)n(CC(=O)N3CCc4c(CNCC(F)F)cccc43)n2)CC1` (racemic) [Example 312] was tested, and the “Nav1.1 current amplification rate (%)” value [2] was 80%.
With `CC1CC=C(c2ccc(=O)n(CC(=O)Nc3ccn4cnnc4c3)n2)CC1` (racemic) [Example 358] the “Nav1.1 current amplification rate (%)” value [2] was 71%.
In the case of `Cc1ccc(-c2ccc(=O)n(CC(=O)Nc3cncnc3)n2)cc1` [Example 141], the “Nav1.1 current amplification rate (%)” value [4] is reported as 46%.
With `CC1CC(C)CN(c2ccc(=O)n(CC(=O)Nc3ccc(C#N)cc3)n2)C1` (centres unmarked) [Example 14] the “Nav1.1 current amplification rate (%)” value [4] was 9%.
`Cc1ccc(-c2ccc(=O)n(CC(=O)Nc3ccn4ncnc4c3)n2)c(F)c1` [Example 566] gave an activation at 1 µM [1] of 98%.
With `CC1CC=C(c2ccc(=O)n(CC(=O)N3CCc4c3ccnc4-c3cccnc3)n2)CC1` (racemic) [Example 297] the “Nav1.1 current amplification rate (%)” value [2] was 151%.
For `CC1CC=C(c2ccc(=O)n(CC(=O)Nc3ccc4nccn4c3)n2)CC1` (racemic) [Example 343], the “Nav1.1 current amplification rate (%)” value [2] was 44%.
For `Cc1ccc(-c2ccc(=O)n(CC(=O)Nc3ccnnc3)n2)cc1` [Example 142], the “Nav1.1 current amplification rate (%)” value [4] was 34%.
With `Cc1cc(NC(=O)Cn2nc(C3=CCC(C)CC3)ccc2=O)cc(C)n1` (racemic) [Example 364] the “Nav1.1 current amplification rate (%)” value [2] was 25%.
With `CC1CC=C(c2ccc(=O)n(CC(=O)Nc3ccc(-n4ccnc4)nc3)n2)CC1` (racemic) [Example 377] the “Nav1.1 current amplification rate (%)” value [2] was 134%.
For `CC1CC=C(c2ccc(=O)n(CC(=O)N3CCN(C4CCOCC4)CC3)n2)CC1` (centres unmarked) [Example 411], the “Nav1.1 current amplification rate (%)” value [3] was 18%.
With `Cc1c(NC(=O)Cn2nc(C3=CCC(C)CC3)ccc2=O)ccc2ncnn12` (racemic) [Example 353] the “Nav1.1 current amplification rate (%)” value [3] was 32%.
For `O=C(Cn1nc(N2CCC3(CCC3)C2)ccc1=O)Nc1ccc2cncnc2c1` [Example 236, 2-[3-(6-azaspiro[3.4]octan-6-yl)-6-oxopyridazin-1(6H)-yl]-N-(quinazolin-7-yl)acetamide], the activation at 1 µM [2] was 214%.
`COC1CN(Cc2cncc(NC(=O)Cn3nc(C4=CCC(C)CC4)ccc3=O)c2)C1` (racemic) [Example 366] was tested, and the “Nav1.1 current amplification rate (%)” value [3] was 37%.
In the case of `N#Cc1ccc(NC(=O)Cn2nc(C3=CCCCC3)ccc2=O)cc1` [Example 39], the “Nav1.1 current amplification rate (%)” value [4] is reported as 125%.
Work on `CC1(C)CCN(c2ccc(=O)n(CC(=O)Nc3ccc(C#N)cc3)n2)CC1` [Example 2, N-(4-Cyanophenyl)-2-[3-(4,4-dimethylpiperidin-1-yl)-6-oxopyridazin-1(6H)-yl]acetamide] yielded an activation at 10 µM [4] of 148%.
With `CC1CC=C(c2ccc(=O)n(CC(=O)Nc3ccc4ncnn4n3)n2)CC1` (racemic) [Example 350] the “Nav1.1 current amplification rate (%)” value [2] was 31%.
`Cc1ccc(-c2ccc(=O)n(CC(=O)N3CCc4ccccc43)n2)cc1` [Example 157] was tested, and the “Nav1.1 current amplification rate (%)” value [3] was 29%.
In the case of `CC1CC=C(c2ccc(=O)n(CC(=O)N3CC=C(c4ccccn4)C3)n2)CC1` (racemic) [Example 385], the “Nav1.1 current amplification rate (%)” value [3] is reported as 42%.
In the case of `CC1CC=C(c2ccc(=O)n(CC(=O)N3CC=C(c4ccccc4)C3)n2)CC1` (racemic) [Example 388], the “Nav1.1 current amplification rate (%)” value [4] is reported as 37%.
In the case of `N#Cc1ccc(NC(=O)Cn2nc(N3CC4CC4C3)ccc2=O)cc1` (centres unmarked) [Example 18], the “Nav1.1 current amplification rate (%)” value [4] is reported as 11%.
Work on `Cc1ccc(Oc2ccc(=O)n(CC(=O)Nc3ccn4ncnc4c3)n2)cc1` [Example 530] yielded an activation at 50 µM [3] of 9%.
`Cc1cn(Cc2cccc3c2CCN3C(=O)Cn2nc(C3=CCC(C)CC3)ccc2=O)cn1` (racemic) [Example 288] was tested, and the “Nav1.1 current amplification rate (%)” value [2] was 115%.
In the case of `CC1CCCN(c2ccc(=O)n(CC(=O)Nc3ccc(C#N)cc3)n2)C1` (centres unmarked) [Example 13], the “Nav1.1 current amplification rate (%)” value [4] is reported as 76%.
Work on `CC1(C)CC=C(c2ccc(=O)n(CC(=O)Nc3ccn4ncnc4c3)n2)C1` [Example 496] yielded an activation at 1 µM [2] of 37%.
In the case of `CC1CC=C(c2ccc(=O)n(CC(=O)N3CCC(c4cccnc4)CC3)n2)CC1` (racemic) [Example 262], the “Nav1.1 current amplification rate (%)” value [4] is reported as 124%.
For `COC1CCN(Cc2cccc3c2CCN3C(=O)Cn2nc(C3=CCC(C)CC3)ccc2=O)C1` (mixture of isomers) [Example 273], the “Nav1.1 current amplification rate (%)” value [2] was 77%.
`CN(c1ccc(=O)n(CC(=O)Nc2ccc3cnccc3c2)n1)C1CC2(CC2)C1` [Example 569] showed an activation at 50 µM [5] of 393%.
With `N#Cc1ccc(NC(=O)Cn2nc(C3CCC(F)(F)CC3)ccc2=O)cc1` [Example 47] the “Nav1.1 current amplification rate (%)” value [4] was 11%.
In the case of `N#Cc1ccc(NC(=O)Cn2nc(N3CCCC4(CCC4)C3)ccc2=O)cc1` [Example 33], the “Nav1.1 current amplification rate (%)” value [4] is reported as 220%.
For `CC1CC=C(c2ccc(=O)n(CC(=O)N3CCc4cc(-c5cccnc5)ccc43)n2)CC1` (racemic) [Example 298], the “Nav1.1 current amplification rate (%)” value [2] was 51%.
Compound `CN(CC1(C)CC1)c1ccc(=O)n(CC(=O)Nc2ccc3cnccc3c2)n1` [Example 567] has an activation at 50 µM [5] of 281%.
`CC1CCC(c2ccc(=O)n(CC(=O)Nc3ccc(C#N)cc3)n2)CC1` (centres unmarked) [Example 43] was tested, and the “Nav1.1 current amplification rate (%)” value [4] was 174%.
`CC1CC=C(c2ccc(=O)n(CC(=O)Nc3ccc(C#N)cc3)n2)CC1` (centres unmarked) [Example 41] was tested, and the “Nav1.1 current amplification rate (%)” value [4] was 324%.
Work on `CN(c1ccc(=O)n(CC(=O)Nc2ccn3ncnc3c2)n1)C1CCCC1` [Example 556] yielded an activation at 1 µM [1] of 13%.
For `CC1CC=C(c2ccc(=O)n(CC(=O)Nc3ccnc(-c4cnn(C)c4)c3)n2)CC1` (racemic) [Example 379], the “Nav1.1 current amplification rate (%)” value [4] was 147%.
For `CC1CC=C(c2ccc(=O)n(CC(=O)NC3CN(c4ccccc4)C3)n2)CC1` (racemic) [Example 372], the “Nav1.1 current amplification rate (%)” value [4] was 52%.
For `N#Cc1ccc(NC(=O)Cn2nc(C3=CCCCO3)ccc2=O)cc1` [Example 48], the “Nav1.1 current amplification rate (%)” value [4] was 33%.
In the case of `CC(C)(C)C1CCN(c2ccc(=O)n(CC(=O)Nc3ccc(C#N)cc3)n2)CC1` [Example 6], the “Nav1.1 current amplification rate (%)” value [4] is reported as 35%.
In the case of `CC(=O)N1CC=C(c2nccc3c2CCN3C(=O)Cn2nc(C3=CCC(C)CC3)ccc2=O)C1` (racemic) [Example 310], the “Nav1.1 current amplification rate (%)” value [2] is reported as 87%.
`CC1CC=C(c2ccc(=O)n(CC(=O)Nc3ncc4ccccc4n3)n2)CC1` (centres unmarked) [Example 551] showed an activation at 10 µM (Concentration 10 μM (Test Result 7)) of 16%.
In the case of `N#Cc1ccc(NC(=O)Cn2nc(N3CCC4(CC3)CC4)ccc2=O)cc1` [Example 17], the “Nav1.1 current amplification rate (%)” value [4] is reported as 212%.
Work on `CC1CCN(c2ccc(=O)n(CC(=O)Nc3ccc4c(c3)NCC4)n2)CC1` [Example 233] yielded an activation at 50 µM [3] of 47%.
In the case of `O=C(Cn1nc(-c2cc(Cl)cs2)ccc1=O)Nc1ccn2ncnc2c1` [Example 497], the activation at 1 µM [2] is reported as 43%.
